{"source": "ChEMBL document CHEMBL5331089", "about": "“Mucormycosis: A hidden mystery of fungal infection, possible diagnosis, treatment and development of new therapeutic agents” (Eur J Med Chem, 2023)", "key": {"Mucor circinelloides [1]": {"system": "Mucor circinelloides", "assay": "Antifungal activity against Mucor circinelloides assessed as fungal growth inhibition measured at 36 to 48 hrs", "assay_type": "functional", "conditions": "time 36-48 hrs"}, "Rhizomucor pusillus [2]": {"system": "Rhizomucor pusillus", "assay": "Antifungal activity against Rhizomucor pusillus assessed as fungal growth inhibition measured at 36 to 48 hrs", "assay_type": "functional", "conditions": "time 36-48 hrs"}, "[3]": {"system": "Syncephalastrum racemosum", "assay": "Antifungal activity against Syncephalastrum racemosum SZMC 2011 assessed as fungal growth inhibition measured after 24 hrs by microtitre plate reader assay", "assay_type": "functional"}, "[4]": {"system": "Cunninghamella bertholletiae", "assay": "Antifungal activity against Cunninghamella bertholletiae clinical isolate assessed as fungal growth inhibition", "assay_type": "functional"}, "Rhizomucor miehei [5]": {"system": "Rhizomucor miehei", "assay": "Antifungal activity against environmental and clinical isolate Rhizomucor miehei assessed as fungal growth inhibition measured after 24 to 48 hrs by plate reader assay", "assay_type": "functional", "conditions": "time 24-48 hrs"}, "Rhizopus arrhizus [6]": {"system": "Rhizopus arrhizus", "assay": "Antifungal activity against Rhizopus oryzae clinical isolate assessed as fungal growth inhibition", "assay_type": "functional"}, "Mucor circinelloides [7]": {"system": "Mucor circinelloides", "assay": "Antifungal activity against Mucor circinelloides clinical isolate assessed as fungal growth inhibition", "assay_type": "functional"}, "Rhizomucor pusillus [8]": {"system": "Rhizomucor pusillus", "assay": "Antifungal activity against Rhizomucor pusillus CN(M)231 assessed as fungal growth inhibition measured after 48 hrs by microtitre plate reader assay", "assay_type": "functional"}, "Rhizopus arrhizus [9]": {"system": "Rhizopus arrhizus", "assay": "Antifungal activity against Rhizopus oryzae CBS 109939 assessed as fungal growth inhibition by checkerboard broth microdilution assay", "assay_type": "functional"}, "Rhizopus homothallicus": {"system": "Rhizopus homothallicus", "assay": "Antifungal activity against Rhizopus homothallicus clinical isolate assessed as fungal growth inhibition", "assay_type": "functional"}, "Rhizopus arrhizus [10]": {"system": "Rhizopus arrhizus", "assay": "Antifungal activity against Rhizopus oryzae clinical isolate assessed as fungal growth inhibition measured after 24 to 72 hrs by microtitre plate reader analysis", "assay_type": "functional", "conditions": "time 24-72 hrs"}, "Rhizomucor pusillus [11]": {"system": "Rhizomucor pusillus", "assay": "Antifungal activity against environmental and clinical isolate Rhizomucor pusillus assessed as fungal growth inhibition measured after 24 to 48 hrs by plate reader assay", "assay_type": "functional", "conditions": "time 24-48 hrs"}, "[12]": {"system": "Syncephalastrum racemosum", "assay": "Antifungal activity against Syncephalastrum racemosum RCMB 016001 assessed as zone of inhibition measured after 24 hrs", "assay_type": "functional"}, "Rhizopus arrhizus [13]": {"system": "Rhizopus arrhizus", "assay": "Antifungal activity against Rhizopus oryzae clinical isolate assessed as fungal growth inhibition by checkerboard broth microdilution assay", "assay_type": "functional"}, "[14]": {"system": "Syncephalastrum racemosum", "assay": "Antifungal activity against Syncephalastrum racemosum assessed as fungal growth inhibition measured for 24 to 24 hrs by agar well diffusion assay", "assay_type": "functional, organism-based", "conditions": "for MIC: time 24-24 hrs"}, "Rhizomucor pusillus [15]": {"system": "Rhizomucor pusillus", "assay": "Antifungal activity against Rhizomucor pusillus clinical isolate assessed as fungal growth inhibition measured after 48 hrs by microtitre plate reader analysis", "assay_type": "functional"}, "Mucor circinelloides [16]": {"system": "Mucor circinelloides", "assay": "Antifungal activity against Mucor circinelloides MS 12 assessed as fungal growth inhibition measured after 48 hrs by plate reader assay", "assay_type": "functional"}, "Rhizopus stolonifer": {"system": "Rhizopus stolonifer", "assay": "Antifungal activity against Rhizopus stolonifer SZMC 11101 assessed as fungal growth inhibition measured after 24 hrs by microtitre plate reader assay", "assay_type": "functional"}, "Mycotypha africana": {"system": "Mycotypha africana", "assay": "Antifungal activity against Mycotypha africana NRRL 2978 assessed as fungal growth inhibition measured after 24 hrs by microtitre plate reader assay", "assay_type": "functional"}, "Rhizopus arrhizus [17]": {"system": "Rhizopus arrhizus", "assay": "Antifungal activity against Rhizopus oryzae CBS 112.07 assessed as fungal growth inhibition measured after 48 hrs by microtitre plate reader assay", "assay_type": "functional"}, "Rhizomucor miehei [18]": {"system": "Rhizomucor miehei", "assay": "Antifungal activity against Rhizomucor miehei CBS 360.92 assessed as fungal growth inhibition measured after 48 hrs by microtitre plate reader assay", "assay_type": "functional"}, "Lichtheimia corymbifera": {"system": "Lichtheimia corymbifera", "assay": "Antifungal activity against Absidia corymbifera SZMC 2010 assessed as fungal growth inhibition measured after 48 hrs by microtitre plate reader assay", "assay_type": "functional"}, "Rhizopus arrhizus [19]": {"system": "Rhizopus arrhizus", "assay": "Antifungal activity against Rhizopus oryzae clinical isolate RO-969 assessed as fungal growth inhibition measured after 24 hrs", "assay_type": "functional"}, "Rhizopus arrhizus [20]": {"system": "Rhizopus arrhizus", "assay": "Antifungal activity against Rhizopus oryzae clinical isolate RO-275 assessed as fungal growth inhibition measured after 24 hrs", "assay_type": "functional"}, "Rhizopus arrhizus [21]": {"system": "Rhizopus arrhizus", "assay": "Antifungal activity against Rhizopus oryzae clinical isolate RO-449 assessed as fungal growth inhibition measured after 24 hrs", "assay_type": "functional"}}}
{"smiles": "Cc1cc(N2CCN(c3ccc(C(=O)N[C@H]4CCCC[C@@H]4O)cc3)CC2)ccc1OC[C@@H]1CO[C@@](Cn2cncn2)(c2ccc(F)cc2F)C1", "values": [{"measurement": "MIC", "setting": "Mucor circinelloides [1]", "result": 2, "unit": "µg/mL"}, {"measurement": "MIC", "setting": "Rhizomucor pusillus [2]", "result": 2, "unit": "µg/mL"}]}
{"smiles": "CC[C@H](C)C(=O)O[C@H]1C[C@@H](C)C=C2C=C[C@H](C)[C@H](CC[C@@H]3C[C@@H](O)CC(=O)O3)[C@H]21", "note": "[LOVASTATIN]", "values": [{"measurement": "MIC", "setting": "[3]", "result": 16, "unit": "µg/mL"}, {"measurement": "MIC", "setting": "[4]", "result": 32, "unit": "µg/mL"}, {"measurement": "MIC", "setting": "Rhizomucor miehei [5]", "result": 64, "unit": "µg/mL"}, {"measurement": "MIC", "setting": "Rhizopus arrhizus [6]", "result": 32.6, "unit": "µg/mL"}, {"measurement": "MIC", "setting": "Mucor circinelloides [7]", "result": 16, "unit": "µg/mL"}, {"measurement": "MIC90", "setting": "Rhizomucor pusillus [8]", "result": 3.6, "unit": "µg/mL"}, {"measurement": "MIC", "setting": "Rhizopus arrhizus [9]", "result": 128, "unit": "µg/mL"}, {"measurement": "MIC", "setting": "Rhizopus homothallicus", "result": 40, "unit": "µg/mL"}, {"measurement": "MIC", "setting": "Rhizopus arrhizus [10]", "result": 128, "unit": "µg/mL"}, {"measurement": "MIC", "setting": "Rhizomucor pusillus [11]", "result": 1, "unit": "µg/mL"}]}
{"smiles": "CCOC(=O)N1C/C(=C\\c2ccc([N+](=O)[O-])cc2)C(=O)[C@@]2(C1)[C@H](c1ccc([N+](=O)[O-])cc1)CN(C)[C@]21C(=O)Nc2ccccc21", "values": [{"measurement": "inhibition zone (IZ)", "setting": "[12]", "result": 39.46, "unit": "mm"}]}
{"smiles": "C[C@@H]1[C@H](O)[C@@H](C)/C=C/C=C/C=C/C=C/C=C/C=C/C=C/[C@H](O[C@@H]2O[C@H](C)[C@@H](O)[C@H](N)[C@@H]2O)C[C@@H]2O[C@](O)(C[C@@H](O)C[C@@H](O)[C@H](O)CC[C@@H](O)C[C@@H](O)CC(=O)O[C@H]1C)C[C@H](O)[C@H]2C(=O)O", "note": "[AMPHOTERICIN B]", "values": [{"measurement": "MIC", "setting": "Rhizopus arrhizus [13]", "result": 2, "unit": "µg/mL"}, {"measurement": "MIC", "setting": "Rhizomucor pusillus [8]", "result": 1, "unit": "µg/mL"}, {"measurement": "inhibition zone (IZ)", "setting": "[12]", "result": 22, "unit": "mm"}, {"measurement": "IC50", "setting": "[14]", "result": 14.3, "unit": "µg/mL"}, {"measurement": "MIC", "setting": "[14]", "result": 1.95, "unit": "µg/mL"}, {"measurement": "MIC", "setting": "Rhizomucor pusillus [15]", "result": 2, "unit": "µg/mL"}, {"measurement": "MIC90", "setting": "Rhizomucor pusillus [15]", "result": 1, "unit": "µg/mL"}]}
{"smiles": "CC(C)c1nc(N(C)S(C)(=O)=O)nc(-c2ccc(F)cc2)c1/C=C/[C@@H](O)C[C@@H](O)CC(=O)O", "note": "[ROSUVASTATIN]", "values": [{"measurement": "MIC", "setting": "Mucor circinelloides [16]", "result": 32, "unit": "µg/mL"}, {"measurement": "MIC", "setting": "Rhizopus stolonifer", "result": 64, "unit": "µg/mL"}, {"measurement": "MIC", "setting": "[3]", "result": 32, "unit": "µg/mL"}, {"measurement": "MIC90", "setting": "Rhizomucor pusillus [8]", "result": 11, "unit": "µg/mL"}, {"measurement": "MIC", "setting": "Mycotypha africana", "result": 8, "unit": "µg/mL"}, {"measurement": "MIC90", "setting": "Rhizopus arrhizus [17]", "result": 96, "unit": "µg/mL"}, {"measurement": "MIC90", "setting": "Rhizomucor miehei [18]", "result": 11, "unit": "µg/mL"}, {"measurement": "MIC90", "setting": "Lichtheimia corymbifera", "result": 33, "unit": "µg/mL"}]}
{"smiles": "C[C@@H](c1ncncc1F)[C@](O)(Cn1cncn1)c1ccc(F)cc1F", "note": "[VORICONAZOLE]", "values": [{"measurement": "MIC", "setting": "Mucor circinelloides [1]", "result": "> 8", "unit": "µg/mL"}, {"measurement": "MIC", "setting": "Rhizomucor pusillus [2]", "result": "> 8", "unit": "µg/mL"}]}
{"smiles": "Cc1ccc([C@H]2[C@@]3(SC(=O)NC3=O)C3CCCN3[C@@]23C(=O)Nc2ccccc23)cc1", "note": "(stereo partly specified)", "values": [{"measurement": "inhibition zone (IZ)", "setting": "[12]", "result": 19, "unit": "mm"}]}
{"smiles": "CCOC(=O)N1C/C(=C\\c2ccc([N+](=O)[O-])cc2)C(=O)[C@@]2(C1)[C@H](c1ccc([N+](=O)[O-])cc1)[C@H]1CCCN1[C@]21C(=O)Nc2ccccc21", "values": [{"measurement": "inhibition zone (IZ)", "setting": "[12]", "result": 39.46, "unit": "mm"}, {"measurement": "IC50", "setting": "[14]", "result": 10.6, "unit": "µg/mL"}, {"measurement": "MIC", "setting": "[14]", "result": 0.49, "unit": "µg/mL"}]}
{"smiles": "CCOC(=O)N1C/C(=C\\c2cc(OC)c(OC)c(OC)c2)C(=O)[C@@]2(C1)[C@H](c1cc(OC)c(OC)c(OC)c1)[C@H]1CCCN1[C@]21C(=O)Nc2ccccc21", "values": [{"measurement": "inhibition zone (IZ)", "setting": "[12]", "result": 39.46, "unit": "mm"}]}
{"smiles": "CC(C)c1c(C(=O)Nc2ccccc2)c(-c2ccccc2)c(-c2ccc(F)cc2)n1CC[C@@H](O)C[C@@H](O)CC(=O)O", "note": "[ATORVASTATIN]", "values": [{"measurement": "MIC", "setting": "Mucor circinelloides [16]", "result": 16, "unit": "µg/mL"}, {"measurement": "MIC", "setting": "Rhizopus stolonifer", "result": 64, "unit": "µg/mL"}, {"measurement": "MIC", "setting": "[3]", "result": 32, "unit": "µg/mL"}, {"measurement": "MIC", "setting": "Rhizopus arrhizus [19]", "result": 64, "unit": "µg/mL"}, {"measurement": "MIC", "setting": "Mycotypha africana", "result": 8, "unit": "µg/mL"}, {"measurement": "MIC", "setting": "Rhizopus arrhizus [9]", "result": 32, "unit": "µg/mL"}, {"measurement": "MIC", "setting": "Rhizopus arrhizus [20]", "result": 64, "unit": "µg/mL"}, {"measurement": "MIC", "setting": "Rhizopus arrhizus [21]", "result": 64, "unit": "µg/mL"}, {"measurement": "MIC", "setting": "Rhizopus arrhizus [10]", "result": 32, "unit": "µg/mL"}]}
{"smiles": "OC(Cn1cncn1)(Cn1cncn1)c1ccc(F)cc1F", "note": "[FLUCONAZOLE]", "values": [{"measurement": "inhibition zone (IZ)", "setting": "[12]", "result": 22, "unit": "mm"}]}
{"smiles": "CCC(C)(C)C(=O)O[C@H]1C[C@@H](C)C=C2C=C[C@H](C)[C@H](CC[C@@H]3C[C@@H](O)CC(=O)O3)[C@H]21", "note": "[SIMVASTATIN]", "values": [{"measurement": "MIC", "setting": "[3]", "result": 8, "unit": "µg/mL"}, {"measurement": "MIC90", "setting": "Rhizomucor pusillus [8]", "result": 11, "unit": "µg/mL"}, {"measurement": "MIC", "setting": "Rhizopus arrhizus [9]", "result": 64, "unit": "µg/mL"}, {"measurement": "MIC90", "setting": "Lichtheimia corymbifera", "result": 96, "unit": "µg/mL"}]}
{"smiles": "O=C1NC(=O)[C@]2(S1)C1CCCN1[C@@]1(C(=O)Nc3ccccc31)[C@H]2c1ccccc1", "note": "(stereo partly specified)", "values": [{"measurement": "inhibition zone (IZ)", "setting": "[12]", "result": 14, "unit": "mm"}]}
{"smiles": "CCOC(=O)N1C/C(=C\\c2ccc(F)c(F)c2)C(=O)[C@@]2(C1)[C@H](c1ccc(F)c(F)c1)CN(C)[C@]21C(=O)Nc2ccccc21", "values": [{"measurement": "inhibition zone (IZ)", "setting": "[12]", "result": 39.46, "unit": "mm"}]}
